Measured values published in PubChem BioAssay AID1963436 (Molecular Pharmacology Branch, DTP, NCI, 2024).
pIC50: −log10 of the molar value.

System: OVCAR-5 complex spheroid (HUVEC/MSC), viability % T/C
Assay: Anticancer human tumor OVCAR-5 cell line growth inhibition [Asc];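 also: spheroids exposed to agents for 7 days before readout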;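 as to viability, T/C: 100% = DMSO vehicle-treated wells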
Details: for pIC50: curve of first compound; for viability, T/C: stronger effect = lower value
Outline: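 Complex solid-tumor spheroids incorporating human endothelial and mesenchymal stem cells received single agents or combinations over half-log dilution ranges anchored to clinical Cmax.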

[1] = second compound 0.01 µM, first compound 0.00316 µM
[2] = second compound 0.01 µM, first compound 0.01 µM
[3] = second compound 0.01 µM, first compound 0.0316 µM
[4] = second compound 0.01 µM, first compound 0.1 µM
[5] = second compound 0.01 µM, first compound 0.316 µM
[6] = second compound 0.01 µM, first compound 1 µM
[7] = second compound 0.0316 µM, first compound 0.00316 µM
[8] = second compound 0.0316 µM, first compound 0.01 µM
[9] = second compound 0.0316 µM, first compound 0.0316 µM
[10] = second compound 0.0316 µM, first compound 0.1 µM
[11] = second compound 0.0316 µM, first compound 0.316 µM
[12] = second compound 0.0316 µM, first compound 1 µM
[13] = second compound 0.1 µM, first compound 0.00316 µM
[14] = second compound 0.1 µM, first compound 0.01 µM
[15] = second compound 0.1 µM, first compound 0.0316 µM
[16] = second compound 0.1 µM, first compound 0.1 µM
[17] = second compound 0.1 µM, first compound 0.316 µM
[18] = second compound 0.1 µM, first compound 1 µM
[19] = second compound 0.316 µM, first compound 0.00316 µM
[20] = second compound 0.316 µM, first compound 0.01 µM
[21] = second compound 0.316 µM, first compound 0.0316 µM
[22] = second compound 0.316 µM, first compound 0.1 µM
[23] = second compound 0.316 µM, first compound 0.316 µM
[24] = second compound 0.316 µM, first compound 1 µM
[25] = second compound 1 µM, first compound 0.00316 µM
[26] = second compound 1 µM, first compound 0.01 µM
[27] = second compound 1 µM, first compound 0.0316 µM
[28] = second compound 1 µM, first compound 0.1 µM
[29] = second compound 1 µM, first compound 0.316 µM
[30] = second compound 1 µM, first compound 1 µM

CCN1CCN(Cc2ccc(Nc3ncc(F)c(-c4cc(F)c5nc(C)n(C(C)C)c5c4)n3)nc2)CC1 + CNC(C)C(=O)NC1CN(S(=O)(=O)c2cccc(S(=O)(=O)N3CCC4CCC(C(=O)NC(c5ccccc5)c5ccccc5)N4C(=O)C(NC(=O)C(C)NC)C3)c2)CCC2CCC(C(=O)NC(c3ccccc3)c3ccccc3)N2C1=O
pIC50 (second compound 0.01 µM): < 6.00
pIC50 (second compound 0.0316 µM): < 6.00
pIC50 (second compound 0.1 µM): < 6.00
pIC50 (second compound 0.316 µM): 6.19
pIC50 (second compound 1 µM): < 6.00
viability, T/C [1]: 87.1%
viability, T/C [2]: 83.2%
viability, T/C [3]: 67.7%
viability, T/C [4]: 59.5%
viability, T/C [5]: 62.7%
viability, T/C [6]: 49.9%
viability, T/C [7]: 76%
viability, T/C [8]: 71.9%
viability, T/C [9]: 58.4%
viability, T/C [10]: 55.2%
viability, T/C [11]: 57.2%
viability, T/C [12]: 49.3%
viability, T/C [13]: 76.8%
viability, T/C [14]: 67.2%
viability, T/C [15]: 55.4%
viability, T/C [16]: 50%
viability, T/C [17]: 55%
viability, T/C [18]: 47%
viability, T/C [19]: 69.3%
viability, T/C [20]: 70.3%
viability, T/C [21]: 59%
viability, T/C [22]: 54.8%
viability, T/C [23]: 52%
viability, T/C [24]: 49.4%
viability, T/C [25]: 76.8%
viability, T/C [26]: 65.3%
viability, T/C [27]: 65.9%
viability, T/C [28]: 58.9%
viability, T/C [29]: 51.9%
viability, T/C [30]: 51.5%

NC(=O)C(=Cn1cnc(-c2cc(C(F)(F)F)cc(C(F)(F)F)c2)n1)c1cncnc1 + CNC(C)C(=O)NC1CN(S(=O)(=O)c2cccc(S(=O)(=O)N3CCC4CCC(C(=O)NC(c5ccccc5)c5ccccc5)N4C(=O)C(NC(=O)C(C)NC)C3)c2)CCC2CCC(C(=O)NC(c3ccccc3)c3ccccc3)N2C1=O
pIC50 (second compound 0.01 µM): 6.65
pIC50 (second compound 0.0316 µM): 6.83
pIC50 (second compound 0.1 µM): 6.87
pIC50 (second compound 0.316 µM): 6.85
pIC50 (second compound 1 µM): 6.91
viability, T/C (second compound 0.01 µM, first compound 0.000949 µM): 95.4%
viability, T/C (second compound 0.01 µM, first compound 0.003 µM): 95.5%
viability, T/C (second compound 0.01 µM, first compound 0.00949 µM): 91.4%
viability, T/C (second compound 0.01 µM, first compound 0.03 µM): 76.5%
viability, T/C (second compound 0.01 µM, first compound 0.0949 µM): 63%
viability, T/C (second compound 0.01 µM, first compound 0.3 µM): 45.5%
viability, T/C (second compound 0.0316 µM, first compound 0.000949 µM): 96%
viability, T/C (second compound 0.0316 µM, first compound 0.003 µM): 89.2%
viability, T/C (second compound 0.0316 µM, first compound 0.00949 µM): 73.3%
viability, T/C (second compound 0.0316 µM, first compound 0.03 µM): 67.7%
viability, T/C (second compound 0.0316 µM, first compound 0.0949 µM): 60%
viability, T/C (second compound 0.0316 µM, first compound 0.3 µM): 39%
viability, T/C (second compound 0.1 µM, first compound 0.000949 µM): 86.6%
viability, T/C (second compound 0.1 µM, first compound 0.003 µM): 89.9%
viability, T/C (second compound 0.1 µM, first compound 0.00949 µM): 77.4%
viability, T/C (second compound 0.1 µM, first compound 0.03 µM): 66.3%
viability, T/C (second compound 0.1 µM, first compound 0.0949 µM): 57.2%
viability, T/C (second compound 0.1 µM, first compound 0.3 µM): 38%
viability, T/C (second compound 0.316 µM, first compound 0.000949 µM): 82.2%
viability, T/C (second compound 0.316 µM, first compound 0.003 µM): 84.1%
viability, T/C (second compound 0.316 µM, first compound 0.00949 µM): 69.4%
viability, T/C (second compound 0.316 µM, first compound 0.03 µM): 66.7%
viability, T/C (second compound 0.316 µM, first compound 0.0949 µM): 60%
viability, T/C (second compound 0.316 µM, first compound 0.3 µM): 37%
viability, T/C (second compound 1 µM, first compound 0.000949 µM): 85.7%
viability, T/C (second compound 1 µM, first compound 0.003 µM): 82.8%
viability, T/C (second compound 1 µM, first compound 0.00949 µM): 79.8%
viability, T/C (second compound 1 µM, first compound 0.03 µM): 70.6%
viability, T/C (second compound 1 µM, first compound 0.0949 µM): 54.9%
viability, T/C (second compound 1 µM, first compound 0.3 µM): 33.4%

O=C(c1ccc(F)c(F)c1Nc1ccc(I)cc1F)N1CC(O)([C@@H]2CCCCN2)C1 + CNC(C)C(=O)NC1CN(S(=O)(=O)c2cccc(S(=O)(=O)N3CCC4CCC(C(=O)NC(c5ccccc5)c5ccccc5)N4C(=O)C(NC(=O)C(C)NC)C3)c2)CCC2CCC(C(=O)NC(c3ccccc3)c3ccccc3)N2C1=O
pIC50 (second compound 0.01 µM): 6.96
pIC50 (second compound 0.0316 µM): 6.97
pIC50 (second compound 0.1 µM): 7.12
pIC50 (second compound 0.316 µM): 7.31
pIC50 (second compound 1 µM): 7.14
viability, T/C [1]: 92.2%
viability, T/C [2]: 80.4%
viability, T/C [3]: 62.6%
viability, T/C [4]: 51.2%
viability, T/C [5]: 40.9%
viability, T/C [6]: 31.8%
viability, T/C [7]: 83.6%
viability, T/C [8]: 78.1%
viability, T/C [9]: 64.5%
viability, T/C [10]: 51.4%
viability, T/C [11]: 36.7%
viability, T/C [12]: 25.5%
viability, T/C [13]: 80%
viability, T/C [14]: 79.1%
viability, T/C [15]: 62.5%
viability, T/C [16]: 46.5%
viability, T/C [17]: 34.2%
viability, T/C [18]: 30.3%
viability, T/C [19]: 77.7%
viability, T/C [20]: 67.3%
viability, T/C [21]: 54.5%
viability, T/C [22]: 42.8%
viability, T/C [23]: 32.8%
viability, T/C [24]: 26.8%
viability, T/C [25]: 79.8%
viability, T/C [26]: 76.9%
viability, T/C [27]: 59.4%
viability, T/C [28]: 47.7%
viability, T/C [29]: 29.7%
viability, T/C [30]: 24.1%
